Source: patent US12282013B2, “Ex vivo methods of screening for, and characterizing, cardiac therapeutics using preloaded cardiac tissues” (NOVOHEART INTERNATIONAL LIMITED, priority 2018, dated 2025)

How the values were obtained:
[1] = tested on: human ventricular cardiac tissue strip (hvCTS); experiment: hvCTS contractile force assay, unstretched, 1-Hz pacing; assay type: cell-based; details: hvCTS paced at 1 Hz, increasing concentrations, responses described as blunted
Description: Seventy-two hours after dissociation, the hvCTS was made by mixing 1.3 million hESC-vCMs and 0.13 million human foreskin fibroblasts, together with 110 μl collagen gel comprising 1.67 mg/ml collagen and […] Matrigel. The cell mixture was then cast into a PDMS mold with two pillars and allowed to solidify for 2 hours in a 37° C., 5% CO2 incubator. Then, the cell mixture was fed with 7 ml DMEM medium (high glucose) supplemented with 10% newborn calf serum. Half of the medium was changed every 2 days.
On day 17 post-fabrication, human ventricular Cardiac Tissue Strips (hvCTS) were transferred from their molds and hooked to the force transducer unit and motor unit of an isolated muscle bath system (Aurora Scientific). The length of the hooked tissue was then adjusted to reach minimal developed tension, which was defined as the original length (Lo, or 0% Lmax) of the tissue. The hvCTS was then incubated in the bath at 37° C. for 10 minutes. Next, the hvCTS was electrically paced (at 5V/cm) at 1 Hz frequency, and stretched from 0 to 50% strain in 2.5% increments every 20 seconds. Recordings were made using Dynamic Muscle Control software (Aurora Scientific). The contractile parameters at each % strain, such as developed force, contractile rate and relaxation rate, were analyzed by Clampfit (Molecular Devices). The length with the maximum developed force was defined as Lmax. […]

[2] = tested on: human ventricular cardiac organoid chamber (hvCOC); experiment: hvCOC pressure-volume / developed pressure assay with preload; assay type: cell-based; details: for area in the pressure-volume loops: absence of preload
Description: The hvCOC was made by a similar approach: Ten million hESC-vCMs and 1 million human foreskin fibroblasts were mixed with 1650 μl collagen gel (same relative composition as described above for hvCTS). The mixture was then cast into a 13-mm diameter cavity in a 2% agarose gel. A modified 6-Fr silicone balloon Foley catheter (Cook Medical) was then inflated and placed into the center of the bioreactor to form the inner boundary of the hvCOC. An 8 mm porous polyethylene ring (Fisher Scientific) and a 6 mm rubber ring were placed on top of the catheter to provide an hvCOC anchor. The polyethylene ring, rubber ring and the catheter were held by a metal tube with 3.9 mm outer diameter. The cell mixture was allowed to solidify for 2 hours in a 37° C., 5% CO2 incubator. Then, the solidified cell mixture was fed with 7 ml DMEM medium (high glucose) supplemented with 10% newborn calf serum. After 24 hours, the medium was aspirated and the agarose gel was removed. Twenty ml of medium was replenished and half of the medium was changed every 2 days. Further description of the hvCOC is provided in Example 5.
Human ventricular Cardiac Organoid Chamber (hvCOC) behavior was measured on day 10 post-fabrication. First, the catheter was deflated and removed. Then, the culture medium was replaced by phenol red-free DMEM (with 25 mM glucose and 25 mM HEPES). Rubber tubing was then filled with medium and used to connect the metal tube of the hvCOC apparatus to a medium tank. The hvCOC was electrically paced at 1.5 Hz (5V/cm) and the pressure-volume change resulting from the paced contractions was recorded for 30 seconds. Pressure was measured by a pressure sensor (Millar) placed inside the hvCOC, and associated area change of the hvCOC was captured by high-speed camera (Allied Vision). The medium tank level was then adjusted from 0 mm (relative to medium level of that in the hvCOC bioreactor), to 2.5, 5 and 7.5 mm above the medium level (representing 0, 2.5, 5 and 7.5 mm H2O preload). The measurements at all 4 preloads (0, 2.5, 5 and 7.5 mm H2O) were then repeated at each dose (0.01 and 0.1 μM) of levosimendan after a 5-minute incubation period.

| SMILES | contractile force [1] | area in the pressure-volume loops ([2]; hvCOC) | increase in developed pressure ([2]; hvCOC, 5 mmH2O preload, 0.1 μM) | developed pressure, dose dependence ([2]; hvCOC, 7.5 mmH2O preload) | developed pressure ([2]; hvCOC, no preload (0 mmH2O), 1 μM) | response of hvCOC (developed pressure) ([2]; preload increased to 2.5 or 5 mmH2O) |
| --- | --- | --- | --- | --- | --- | --- |
| CC(C)NCC(O)c1ccc(O)c(O)c1 (centres unmarked) [isoproterenol] | trend of increasing contractile force | increase in area in the pressure-volume loops |  |  |  |  |
| C[C@@H]1CC(=O)NN=C1c1ccc(NN=C(C#N)C#N)cc1 [levosimendan] | trend of increasing contractile force | increase in area in the pressure-volume loops | approximately 50% | did not show any significant dose-dependent increase | no increase in developed pressure | greatly enhanced the response |
